This note sets out measurements from US8129345B2, “MUC1-IκB kinase complexes and their activities” (Dana-Farber Cancer Institute, Inc., priority 2006, dated 2012).

One experiment deals with ZR-75-1/MUC1siRNA cells. The experiment in a line: Expression of Flag-tagged MUC1-CD in ZR-75-1/MUC1siRNA cells. Type of experiment: cell-based, Human. The settings on record: compared to empty vector. The method, then:
FIG. 9A is a pair of photographs of immunoblots. ZR-75-1/MUC1siRNA cells were transfected with the empty pIRES-puro2 vector or a pIRES-puro2-Flag-MUC1-CD vector. Lysates were prepared from the cells and subjected to SDS-PAGE and immunoblotting using antibodies specific to MUC1-C or β-actin as a control. The molecular weights of proteins (as indicated on the left of the photographs) are expressed as kilodaltons (kDa).
FIG. 9B is a pair of photographs of immunoblots. ZR-75-1/MUC1siRNA cells were transfected with the empty pIRES-puro2 vector or a pIRES-puro2-Flag-MUC1-CD vector. Lysates were prepared from the cells and subjected to immunoprecipitation using antibodies specific to IKKγ. Immunoprecipitates were immunoblotted using antibodies specific for IKKβ or IKKγ as indicated. The molecular weights of proteins (as indicated on the left of the photographs) are expressed as kilodaltons (kDa).
FIG. 9C is a pair of photographs of immunoblots. ZR-75-1/MUC1siRNA cells were transfected with the empty pIRES-puro2 vector or a pIRES-puro2-Flag-MUC1-CD vector. Lysates were prepared from the cells and subjected to immunoprecipitation using antibodies specific for IKKβ. Immunoprecipitates were immunoblotted using antibodies specific for phospho-IKKβ-ser-181 or IKKβ as indicated. The molecular weights of proteins (as indicated on the left of the photographs) are expressed as kilodaltons (kDa).
FIG. 9D is a pair of photographs of immunoblots. Cytosolic fractions were prepared from ZR-75-1/MUC1siRNA cells transfected with the empty pIRES-puro2 vector or a pIRES-puro2-Flag-MUC1-CD vector. Lysates were immunoblotted with anti-phospho-IκBα and anti-IκBα antibodies where indicated. The molecular weights of proteins (as indicated on the left of the photographs) are expressed as kilodaltons (kDa).
FIG. 9E is a photograph of an immunoblot. Nuclear fractions were prepared from ZR-75-1/MUC1siRNA cells transfected with the empty pIRES-puro2 vector or a pIRES-puro2-Flag-MUC1-CD vector and subjected to immunoblotting with antibodies specific for NF-κB or lamin B as a control. As a further control for the quality of nuclear fractionation, immunoblotting for IκBα was performed using antibodies specific for IκBα. The molecular weights of proteins (as indicated on the left of the photographs) are expressed as kilodaltons (kDa).
Subcellular fractionation. Nuclear and cytosolic fractions were prepared as described in Kharbanda et al. (1996) Cancer Res. 56:3617-3621.
Immunoprecipitation and immunoblotting. Lysates from subconfluent cells were prepared as described in Ren et al. (2004) Cancer Cell 5:163-175. […] The immune complexes were detected with horseradish peroxidase-conjugated secondary (anti-IgG) antibodies (Amersham Biosciences) and enhanced chemiluminescence (ECL; Amersham Biosciences). […]

The next experiment deals with IKKβ (Homo sapiens, UniProt O14920). Description: In vitro incubation of IKKβ and IKKγ with ATP, phospho-IKKβ-Ser-181 immunoblot. In kind it is biochemical. The note with it: MUC1 protein added to the reaction. The method, then: FIG. 13 is a series of photographs of immunoblots. GST, and GST-IKKγ fusion proteins bound to glutathione beads were incubated with MUC1-CD, MUC1-CD(mSRM), or IKKβ proteins as indicated. The GST-pull down precipitates were immunoblotted (IB) with antibodies specific for (from top to bottom) phosphor-IKKβ-Ser-181 (first panel), IKKγ (second panel), IKKβ (third panel), or MUC1 (fourth panel) as indicated. The molecular weights of proteins (as indicated on the left of the photographs) are expressed as kilodaltons (kDa).
Chain of IKKβ (O14920 whole entry, the tested form may be a part): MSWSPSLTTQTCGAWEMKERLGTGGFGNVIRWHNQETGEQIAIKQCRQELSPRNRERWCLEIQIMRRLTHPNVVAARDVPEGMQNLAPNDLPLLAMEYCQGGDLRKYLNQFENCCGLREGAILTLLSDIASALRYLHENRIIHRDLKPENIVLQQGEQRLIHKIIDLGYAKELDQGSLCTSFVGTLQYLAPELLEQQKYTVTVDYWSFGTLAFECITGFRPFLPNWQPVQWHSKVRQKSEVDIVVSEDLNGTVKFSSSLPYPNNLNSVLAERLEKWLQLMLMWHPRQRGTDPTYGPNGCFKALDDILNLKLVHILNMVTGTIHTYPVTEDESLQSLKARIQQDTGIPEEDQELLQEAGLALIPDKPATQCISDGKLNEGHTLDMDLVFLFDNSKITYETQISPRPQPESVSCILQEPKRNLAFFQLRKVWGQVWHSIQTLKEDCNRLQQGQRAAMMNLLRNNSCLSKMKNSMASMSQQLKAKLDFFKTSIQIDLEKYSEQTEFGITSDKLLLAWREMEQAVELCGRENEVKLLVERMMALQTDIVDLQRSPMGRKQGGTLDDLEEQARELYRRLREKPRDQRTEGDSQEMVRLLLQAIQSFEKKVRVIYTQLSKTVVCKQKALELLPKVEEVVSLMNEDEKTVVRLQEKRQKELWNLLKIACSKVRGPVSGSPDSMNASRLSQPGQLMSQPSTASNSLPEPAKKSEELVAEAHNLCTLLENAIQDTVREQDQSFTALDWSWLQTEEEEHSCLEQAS
Chain of IKKβ (Q9Y6K9 whole entry partner, the tested form may be a part): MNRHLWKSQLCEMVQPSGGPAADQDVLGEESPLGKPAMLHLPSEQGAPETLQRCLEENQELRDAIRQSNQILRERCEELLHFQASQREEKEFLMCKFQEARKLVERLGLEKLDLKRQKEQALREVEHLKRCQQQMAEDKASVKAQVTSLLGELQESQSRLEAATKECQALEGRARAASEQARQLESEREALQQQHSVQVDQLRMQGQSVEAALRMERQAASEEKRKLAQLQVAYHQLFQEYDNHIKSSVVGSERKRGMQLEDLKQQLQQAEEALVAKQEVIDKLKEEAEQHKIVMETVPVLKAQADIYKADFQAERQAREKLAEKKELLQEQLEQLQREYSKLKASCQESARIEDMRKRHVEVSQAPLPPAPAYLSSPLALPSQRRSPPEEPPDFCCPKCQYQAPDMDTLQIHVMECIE

Regarding “MUC1-CD: 72 amino acid cytoplasmic domain of human MUC1, SEQ ID NO:2”, in the experiment on ZR-75-1/MUC1siRNA cells, the IKKβ-IKKγ complex formation entry is listed as “increases in IKKβ-IKKγ complex formation” and the “phosphorylation of IKKβ on Ser-181” value is listed as “increased phosphorylation”. Further, the “phosphorylation of IκBα” value in the experiment on ZR-75-1/MUC1siRNA cells (cytosolic fractions) is given as “increased phosphorylation”. Further, in the experiment on ZR-75-1/MUC1siRNA cells (nuclear fractions), the “targeting of NF-κB p65 to the nucleus” value is “increased targeting of NF-κB p65 to the nucleus”. Moreover, in the experiment with IKKβ, the “extent of IKKβ phosphorylation on Ser-181” value was “increased significantly”.
